The text below walks through data of PubChem BioAssay (NCI).

The structures appear in SMILES notation.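 Five compound concentrations were applied to cells in 96-well plates for 48 hours; endpoints were derived by simple linear interpolation of the resulting dose-response curve. TGI denotes the concentration required for complete inhibition of growth.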 Bounds are passed on as bounds.

Test systems include UACC-257 melanoma; M14 melanoma; UACC-62 melanoma; LOX IMVI melanoma; K-562 leukemia; A498 renal; U251 CNS; NCI-H23 lung; SK-MEL-2 melanoma; SW-620 colon; HCT-15 colon; SK-OV-3 ovarian; CCRF-CEM leukemia; NCI/ADR-RES ovarian; DU-145 prostate; MCF7 breast.
What all share (experiment): NCI-60 cell line screen, 48 h

With `C#CC1(O)CC(c2ccccc2)N(C)C(c2ccccc2)C1` (configuration not stated), the TGI with UACC-257 melanoma, in the experiment on M14 melanoma, in the experiment with UACC-62 melanoma, in the experiment on LOX IMVI melanoma, in the experiment with K-562 leukemia and with A498 renal was over 100 µM each time. Moreover, the TGI with U251 CNS, in the experiment on NCI-H23 lung, in the experiment with SK-MEL-2 melanoma, in the experiment on SW-620 colon, in the experiment with HCT-15 colon and with SK-OV-3 ovarian was over 100 µM each time. The TGI in the experiment with CCRF-CEM leukemia is over 100 µM.
With `Cc1cc2nc3c(C#N)c4c(c(Nc5ccc(Cl)cc5)n3c2cc1C)CCC4`, the TGI was 76.6 µM in the experiment on UACC-257 melanoma; 48.1 µM in the experiment on NCI/ADR-RES ovarian; 75.1 µM with DU-145 prostate; 32.8 µM with LOX IMVI melanoma; over 100 µM with A498 renal; 32.9 µM in the experiment on U251 CNS. Besides, the TGI is 57.2 µM in the experiment with NCI-H23 lung, 34 µM in the experiment on SW-620 colon, 36.7 µM with HCT-15 colon and over 100 µM with SK-OV-3 ovarian.
`COC(=O)/C=C/N1CC1`: the TGI in the experiment on UACC-257 melanoma, in the experiment with NCI/ADR-RES ovarian, in the experiment with M14 melanoma, with UACC-62 melanoma, in the experiment with DU-145 prostate and in the experiment on MCF7 breast was over 10 µM each time. The TGI in the experiment on K-562 leukemia, with U251 CNS, in the experiment on NCI-H23 lung, in the experiment with SK-MEL-2 melanoma, in the experiment with HCT-15 colon and with SK-OV-3 ovarian was over 10 µM throughout. In the experiment with CCRF-CEM leukemia, this compound had a TGI of over 10 µM.
With `O=c1[nH]c(Br)nc2c(N3CCCCC3)c[nH]c12`, the TGI in the experiment with UACC-257 melanoma, in the experiment with M14 melanoma, in the experiment with UACC-62 melanoma, in the experiment with LOX IMVI melanoma, in the experiment with K-562 leukemia and with A498 renal was over 100 µM each time. Further, the TGI in the experiment with U251 CNS, in the experiment with NCI-H23 lung, with SK-MEL-2 melanoma, in the experiment with SW-620 colon, in the experiment on HCT-15 colon and in the experiment with SK-OV-3 ovarian was over 100 µM throughout. Also, in the experiment with CCRF-CEM leukemia, the TGI was over 100 µM.
Regarding `COc1cc2c(cc1OC)C(=O)N1CCCC1C(=O)S2` (configuration not stated), the TGI with UACC-257 melanoma, with M14 melanoma, in the experiment with UACC-62 melanoma, in the experiment on LOX IMVI melanoma, in the experiment with K-562 leukemia and in the experiment on U251 CNS was over 100 µM throughout. For the same compound, the TGI in the experiment on NCI-H23 lung, in the experiment on SK-MEL-2 melanoma, in the experiment on SW-620 colon, in the experiment on HCT-15 colon, with SK-OV-3 ovarian and in the experiment on CCRF-CEM leukemia was over 100 µM in each case.
As for `CN1C(=O)C(O)C[C@@H]1c1ccc(F)cc1` (some centres not stated), the TGI in the experiment with UACC-257 melanoma, with M14 melanoma, in the experiment with UACC-62 melanoma, in the experiment with DU-145 prostate, in the experiment on LOX IMVI melanoma and in the experiment with MCF7 breast was over 100 µM each time. The TGI in the experiment with U251 CNS, with NCI-H23 lung, with SK-MEL-2 melanoma, in the experiment with HCT-15 colon, in the experiment on SK-OV-3 ovarian and in the experiment with CCRF-CEM leukemia was over 100 µM throughout.
Turning to `CCCC(=O)OC1=C(c2ccccc2)Sc2ccccc2-n2cccc21`, the TGI with UACC-257 melanoma, with M14 melanoma, in the experiment with UACC-62 melanoma, in the experiment on DU-145 prostate, in the experiment on LOX IMVI melanoma and in the experiment with MCF7 breast was over 10 µM in each case. Further, the TGI with K-562 leukemia, in the experiment with NCI-H23 lung, with SW-620 colon, in the experiment on HCT-15 colon, with SK-OV-3 ovarian and with CCRF-CEM leukemia was over 10 µM each time.
On to `COC1=CC(=O)C2C(C1=O)[C@@H]1c3ccccc3OC[C@H]21` (some centres not stated), for which the TGI in the experiment with M14 melanoma, with LOX IMVI melanoma, in the experiment on K-562 leukemia, with A498 renal, in the experiment with U251 CNS and in the experiment on NCI-H23 lung was over 100 µM in each case. The TGI with SK-MEL-2 melanoma, in the experiment on SW-620 colon, with SK-OV-3 ovarian and with CCRF-CEM leukemia was over 100 µM in each case.
Turning to `CC1CC/C(=C\c2ccc(F)cc2)C2=C1C(c1ccc(F)cc1)n1c(s/c(=C\c3ccc(Cl)cc3)c1=O)=N2` (configuration not stated), the TGI with UACC-257 melanoma, with M14 melanoma, with UACC-62 melanoma, with DU-145 prostate, with LOX IMVI melanoma and in the experiment with MCF7 breast was over 100 µM each time. The TGI in the experiment on K-562 leukemia, with A498 renal, with U251 CNS, with SK-MEL-2 melanoma, in the experiment with SW-620 colon and with HCT-15 colon was over 100 µM in each case. For the same compound, the TGI with SK-OV-3 ovarian and in the experiment on CCRF-CEM leukemia was over 100 µM in each case.
For `Nc1nc2c(ncn2CC(CO)CC(c2ccccc2)P(=O)(O)O)c(=O)[nH]1` (configuration not stated), the TGI in the experiment on UACC-257 melanoma, with M14 melanoma, in the experiment on UACC-62 melanoma, in the experiment on LOX IMVI melanoma, with K-562 leukemia and in the experiment on A498 renal was over 100 µM in each case. In addition, the TGI in the experiment with U251 CNS, in the experiment on NCI-H23 lung, in the experiment on SK-MEL-2 melanoma, with SW-620 colon, in the experiment with HCT-15 colon and with SK-OV-3 ovarian was over 100 µM in each case. The same compound had a TGI with CCRF-CEM leukemia of over 100 µM.
On to `C[C@]12CC[C@H]3[C@@H](CCC4=CC(=O)CC[C@@]43C)[C@@H]1CC[C@@H]2OC(=O)c1cccc2c(=O)c3ccccc3[nH]c12`, for which the TGI in the experiment with UACC-257 melanoma was over 100 µM; in the experiment with NCI/ADR-RES ovarian, over 100 µM; with M14 melanoma, over 100 µM; in the experiment with UACC-62 melanoma, over 100 µM; with LOX IMVI melanoma it was 62.1 µM; with MCF7 breast, over 100 µM. The TGI in the experiment on K-562 leukemia is 80 µM; in the experiment on A498 renal it was over 100 µM; with U251 CNS, over 100 µM; in the experiment with NCI-H23 lung it was over 100 µM; with SK-MEL-2 melanoma it was over 100 µM; in the experiment on SW-620 colon, over 100 µM. The TGI in the experiment on HCT-15 colon, in the experiment with SK-OV-3 ovarian and in the experiment on CCRF-CEM leukemia was over 100 µM throughout.
